According to US4879277A, “Antiviral compositions and methods” (The United States of America as represented by the …, priority 1987, dated 1989):
Entries after “also recorded” stand apart in the source; their conditions may differ.

Key:
HIV [1] = test: In vitro inhibition of the cytopathic effect of HIV in ATH8 cells; type: cell-based, human immunodeficiency virus
Source text: ATH8 cells (2×10^5) were pre-exposed to polybrene, and exposed to HIV in culture tubes (2,000 virus particles per cell), in the presence or absence of various concentrations of 2',3'-dideoxycytidine (ddC).
(§1) Of critical importance to the biological activation of the 2',3'-dideoxycytidine analogues inside human cells, both as antiviral and as antitumor agents, is their anabolic conversion to nucleotides inside cells. This cannot be assumed to occur because not all nucleoside analgoues can be adequately phosphorylated. The ability of HIV-infected human T-lymphoblasts to phosphorylate 2',3'-dideoxycytidine nucleoside (ddCyd) was tested. […] The incubation was terminated after 24 hours of drug exposure, and the TCA-soluble fraction of the cell lysate was resolved on HPLC, utilizing a radial compression column of Partisil-10 SAX with a gradient of ammonium phosphate.

HIV-infected ATH8 cells = test system: HIV-infected ATH8 cells
Method: as §1

HIV [2] = test: In vitro inhibition of infectivity and replication of HIV (p24 gag expression in H9 cells); type: cell-based
Method: The in vitro inhibition of the infectivity and replication of the HIV virus by ddC was also tested. The results are shown in FIG. 4-B. In this test, 10^5 H9 cells were exposed to various concentrations of ddC for 4 hours, then to 2 ug/ml polybrene for 30 minutes, pelleted, and then exposed to HIV (3,000 virus particles/cell) for 1.5 hours. Cells were resuspended in fresh complete medium and cultured in tubes at 37° C. in 5% CO2 -containing humidified air, and under conditions in which the cells were continuously exposed to ddC. On days 8 (left), 9 (middle), and 10 (right) in culture, the percentage of the target H9 cells expressing p24 gag protein of HIV was determined by indirect immunofluorescence microscopy by using anti-HIV p24 murine monocolonal antibody.

T4 cells [3] = test: T4 cell number and T4/T8 ratio in AIDS patients receiving ddC; type: in vivo, human; conditions: for T4/T8 Ratio, Start Treatment / T4/mm3, Start Treatment: start of treatment
Source text: (§2) The efficacy of the application of 2',3'-dideoxycytidine in human use is shown graphically in Table I, where the absolute number of T4 cells and the T4/T8 ratio both show an increase in the T cells, indicating improvements of the immune system in patients with AIDS and its related conditions following therapy. […] It has also been shown that the circulating p24 antigen-level (a measure of viral replication in a patient's body) falls, following treatment with these compositions.
*Patients 1 and 2 received one dose of ddC every 8 hours, and patient 3
received one dose every 4 hours. Patient 1 received intravenous (IV)
dosing throughout; patient 2 received IV dosing for 21 days, followed by
oral dosing; patient 3 received IV dosing throughout. IV dosing was given
as 1 hour infusions. For oral dosing, the ddC was administered dissolved
in 0.1 ml of 0.9% sodium chloride solution and approximately 100 ml of
orange juice. Each patient received a 1 hour intravenous infusion (test
dose) of ddC two days prior to the initiating of dosing.

HIV p24 antigen = test: Circulating HIV p24 antigen level in patients; type: in vivo, human immunodeficiency virus; conditions: following treatment
Source text: as §2
levels in the blood after one to two weeks of treatment.

[4] = Toxicity observed in humans likely due to ddC administration; type: in vivo, human
Source text: Toxicity toward humans has been shown by the observation residing in Table II.
Toxicity Observed Which is
Likely to be Due to ddC Administration

[5] = test system: Human T4^+ T lymphocytes (ATH8 cell line); test: Anabolism of ddCyd by human T4+ T lymphocytes (intracellular concentration); type: in vitro ADME; conditions: ATH8 cells exposed to 1 uM ddCyd for 24 hours
Method: * After incubation with ^3 Hlabelled 2',3dideoxycytidine (ddCyd) (1
exchange HPLC using radial compression columns of PartisilSAX equilibrate
phosphate, pH 3.8. ddCMP, 2',3dideoxycytidine-5monophosphate; ddCDP,

Clone TM 3 = test: In vitro immune reactivity of normal helper/inducer TM3 cells (3H-uridine incorporation); type: cell-based, human; conditions: 72 hours, tetanus toxoid, control (None) 12 ± 1
PBM + PHA = test: In vitro immune reactivity of PBM stimulated with PHA (3H-uridine incorporation); type: cell-based, human; conditions: 72 hours, control (None) 82 ± 1
Method: (§3) 5×10^4 normal helper/inducer TM3 cells were stimulated with tetanus toxoid (0.6 limiting flocculation units/ml) plus 10^5 irradiated (4,000 rad) autologous peripheral blood mononuclear cells (PBM) as a source of accessory cells, and were cultured for 72 hours in the presence or absence of ddC. After exposure to uCi ^3 H-uridine for the final 5 hours, cells were harvested onto glass fibers and the incorporated radioactivity was counted. Data are expressed as the arithmetic mean counts per minute (×10^3)±1 standard deviation triplicate determinations. 10^6 PBM from a healthy individual were stimulated with phytohaemagglutinin (PHA) or pokeweek mitogen (PWM) and cultured for 72 hours, and treated as described above. ^3 H-uridine incorporation was used as an indicator of activiation of the responder cells.

PBM + PWM = test: In vitro immune reactivity of PBM stimulated with PWM (3H-uridine incorporation); type: cell-based, human; conditions: 72 hours, control (None) 24 ± 1
Method: as §3

cytidine deaminase = test: Sensitivity to cytidine deaminase; type: in vitro ADME
T cells = test: Safety to T cells (studies of anabolic phosphorylation on human cells); type: cell-based; conditions: comparable dosages
normal lymphocytes = test system: normal lymphocytes
Method: as §3

T4 cells [6] = test: T4 cell number and T4/T8 ratio in AIDS patients receiving ddC; type: in vivo, human; conditions: patient 2, 0.03 mg/kg every 8 hours, IV then oral, 19 days receiving ddC
[7] = Example 7, concentration (uM) figure not given
[8] = AIDS patients, following therapy
[9] = patient 1, 0.25 mg/kg every 8 hours IV, 8 days receiving ddC
[10] = patient 1, 0.25 mg/kg every 8 hours IV
[11] = patient 2, 0.03 mg/kg every 8 hours, IV then oral
[12] = patient 3, 0.03 mg/kg every 4 hours IV, 12 days receiving ddC
[13] = patient 3, 0.03 mg/kg every 4 hours IV
[14] = 0.03 mg/kg 3×/day intravenous for 12 days followed by 0.3 mg/kg 3×/day orally

## Nc1ccn([C@H]2C[C@H](O)[C@@H](CO)O2)c(=O)n1 [dCYD, reference compound]
HIV [1]; dCYD with ddCyd
  reversal of the anti-HIV effect of ddCyd: reverses the anti-HIV effect of ddCyd
HIV-infected ATH8 cells; dCYD (5 uM) added together with ddCYD
  phosphorylation of ddCYD: phosphorylation was blocked

## Nc1ccn([C@H]2CC[C@@H](CO)O2)c(=O)n1 [ddC, 2',3'-dideoxycytidine]
HIV [1]; 1 uM ddCyd
  inhibition of the cytopathic effect of the virus: 100%
HIV [1]; ATH8 cells, day 5, 2,000 virus particles per cell, FIG. 4-A
  inhibition of the cytopathic effect of HIV: almost complete inhibition
HIV [1]; [7]
  inhibition of the cytopathic effect of HIV: virtually complete inhibition
HIV [2]; 1 uM ddCyd
  inhibition of the infectivity of the virus: 100%
  inhibition of the replication of the virus: 100%
HIV [2]; [7]
  inhibition of the viral p24 expression: virtually complete inhibition
HIV [2]; H9 cells, p24 gag expression, days 8, 9, 10, 3,000 virus particles/cell, FIG. 4-B
  inhibition of the infectivity and replication of HIV: almost complete inhibition
T4 cells [3]; [8]
  T4/T8 ratio (change): increase
  absolute number of T4 cells: increase
T4 cells [3]; [9]
  T4/T8 Ratio, End Treatment: 0.40
  T/mm3, End Treatment: 530 /mm3
T4 cells [3]; [10]
  T4/T8 Ratio, Start Treatment: 0.20
  T4/mm3, Start Treatment: 309 /mm3
T4 cells [3]; [11]
  T4/T8 Ratio, Start Treatment: 0.39
  T4/mm3, Start Treatment: 260 /mm3
T4 cells [3]; [12]
  T4/T8 Ratio, End Treatment: 0.51
  T/mm3, End Treatment: 307 /mm3
T4 cells [3]; [13]
  T4/T8 Ratio, Start Treatment: 0.26
  T4/mm3, Start Treatment: 246 /mm3
HIV p24 antigen
  circulating p24 antigen-level: falls
[4]; [14]
  Tolerated for up to, without significant toxicity in some patients: up to 40 days
  minor toxicity in one patient: skin rash and oral ulcers
[4]; 0.03 mg/kg 6×/day intravenous for 14 days, followed by 0.03 mg/kg 6×/day orally
  Tolerated for up to, without significant toxicity: up to 18 days
[4]; 0.25 mg/kg 3×/day intravenous
  Toxicity: Thrombocytopenia; also recorded: skin rash
[4]; 0.25 mg/kg 3×/day intravenous, dropped from
  platelets, before drop: 234,000 /mm^3
[4]; 0.25 mg/kg 3×/day intravenous, dropped to
  platelets, after drop: 68,000 /mm^3
[4]; humans
  minor toxicities: skin rash and aphthous stomatitis
  toxic effect in humans: bone marrow suppression (decreased platelets)
[4]; some patients, prolonged administration
  toxicity in some patients with prolonged administration: small fiber peripheral neuropathy
[5]
  Intracellular concentration of ddCDP: 1.20 µM
  Intracellular concentration of ddCDPch: 1.10 µM
  Intracellular concentration of ddCMP: 2.10 µM
  Intracellular concentration of ddCTP: 0.5 µM
  Intracellular concentration of ddCyd: 6.40 µM
HIV-infected ATH8 cells
  difference between uninfected and HIV-infected ATH8 cells in ability to phosphorylate ddCYD: No significant qualitative or quantitative differences
Clone TM 3; 1 uM ddC
  mean counts per minute (×10^3) ± 1 standard deviation, 3H-uridine incorporation: 13 ± 1 counts per minute (×10^3)
Clone TM 3; 10 uM ddC
  mean counts per minute (×10^3) ± 1 standard deviation, 3H-uridine incorporation: 8 ± 1 counts per minute (×10^3)
PBM + PHA; 1 uM ddC
  mean counts per minute (×10^3) ± 1 standard deviation, 3H-uridine incorporation: 101 ± 1 counts per minute (×10^3)
PBM + PHA; 10 uM ddC
  mean counts per minute (×10^3) ± 1 standard deviation, 3H-uridine incorporation: 86 ± 3 counts per minute (×10^3)
PBM + PWM; 1 uM ddC
  mean counts per minute (×10^3) ± 1 standard deviation, 3H-uridine incorporation: 23 ± 3 counts per minute (×10^3)
PBM + PWM; 10 uM ddC
  mean counts per minute (×10^3) ± 1 standard deviation, 3H-uridine incorporation: 15 ± 3 counts per minute (×10^3)
Cytidine deaminase
  sensitivity to cytidine deaminase: not sensitive to cytidine deaminase
T cells
  safety to T cells: safe and non-lethal to T cells
Normal lymphocytes
  harm to cells: not harmed by drug concentrations that exceed the virustatic dose
T4 cells [6]
  T4/T8 Ratio, End Treatment: 0.47
  T/mm3, End Treatment: 326 /mm3
